Legend:
[1] = tested on: TLR7 induced IL-6 secretion in human mononuclear cells (PBMC's); test: TLR7 induced IL-6 in human PBMC's; assay type: cell-based; details: TLR7 specific ligand 2 uM overnight, IL-6 AlphaLISA
Description: TLR7 Induced IL-6 in Human PBMC's
Human PBMC assay was used as one of the functional assaya to monitor the activity of IRAK1 and IRAK4 small molecule inhibitors on TLR7 induced IL-6 secretion in human mononuclear cells (PBMC's). Human PBMCs were prepared from buffy coats (whole blood enriched with leukocytes and platelets) obtained from healthy volunteers used either fresh or frozen are plated in assay media (RPMI+2% P/S/L-glu+10% HI-FBS) and pre-treated with compounds in DMSO/media (range of concentrations from 25 uM to 0.4 nM) or controls (0.25% DMSO) for 30 minutes at 37° C. in assay media. Following pre-treatment with IRAK1 and IRAK4 inhibitors, PBMC's were stimulated with TLR7 specific ligand (2 uM) overnight (16-18 hrs) at 37° C. After incubation supernatant was transferred to 384 well PE AlphaPlate-384 (6005350) and IL-6 is quantified using Perkin Elmer IL-6 Alpha LISA kit (AL223C). Plates were read on an Envision® plate reader with Alpha Technology®.

IRAK4 = molecular target: T1, IRAK4 (Homo sapiens, UniProt Q9NWZ3); test: IRAK4 enzymatic assay (ADP-Glo luminescence); assay type: biochemical; details: human recombinant His-TEV-IRAK4 (1-460), STK1-biotin peptide substrate
T1 construct: His-TEV-IRAK4 (1-460); His (N); TEV cleavage site (N)
T1 sequence (Q9NWZ3 1-460): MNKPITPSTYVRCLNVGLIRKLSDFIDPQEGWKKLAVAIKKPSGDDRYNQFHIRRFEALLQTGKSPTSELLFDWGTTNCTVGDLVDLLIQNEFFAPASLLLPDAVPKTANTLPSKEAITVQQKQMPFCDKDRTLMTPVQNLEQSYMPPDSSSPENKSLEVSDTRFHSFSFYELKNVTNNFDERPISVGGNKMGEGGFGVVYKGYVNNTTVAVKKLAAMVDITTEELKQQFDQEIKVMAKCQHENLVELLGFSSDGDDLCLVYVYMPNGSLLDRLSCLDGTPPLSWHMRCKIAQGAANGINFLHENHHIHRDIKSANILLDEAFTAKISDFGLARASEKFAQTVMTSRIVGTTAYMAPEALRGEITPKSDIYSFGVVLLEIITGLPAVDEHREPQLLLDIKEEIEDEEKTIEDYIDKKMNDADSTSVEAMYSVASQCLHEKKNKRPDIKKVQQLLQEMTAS
Description: IRAK4 is a human purified recombinant enzyme (His-TEV-IRAK4 (1-460)).
In this assay, IRAK4 hydrolyses ATP, autophosphorylates and phosphorylates a Serine/Threonine generic peptidic substrate (STK: 61ST1BLC from CisBio International). Measurement of IRAK-4 inhibition is performed in 384-well format based on a luminescence assay (ADP-Glo™ Kinase Assay from Promega). Purified human recombinant IRAK4 ([…]) and serial diluted compounds in DMSO (range of concentration from 10 μM to 0.5 nM) or controls (1% DMSO) are incubated for 15 minutes at RT in assay buffer containing 50 mM Hepes pH 7.0, Fatty acid-free BSA 0.1%, Dithiothreitol (DTT) 2 mM, MgCl2 10 mM, EGTA 0.5 mM, Triton X-100 0.01%, MnCl2 5 mM. The kinase reaction is then initiated by the addition of ATP ([…]) and the peptidic substrate STK1-biotin peptide (300 nM). After 2 hours of incubation at RT, the reaction is stopped and the unconsumed ATP depleted by the addition of ADP-Glo™ Reagent according to supplier instructions. After 40 minutes of incubation at RT, the Kinase Detection Reagent is then added to the assay plate according to supplier instructions. After 20 minutes of incubation at RT, the luminescence signal is measured with a plate-reading luminometer (PerkinElmer Envision or equivalent reader).

IRAK1 = molecular target: T2, IRAK1 (Homo sapiens, UniProt P51617); test: IRAK1 enzymatic assay (ADP-Glo luminescence); assay type: biochemical; details: human recombinant His-TEV-IRAK1 (194-712), ATP 1 μM; read-out: IRAK 1 IC50
T2 construct: His-TEV-IRAK1 (194-712); His (N); TEV cleavage site (N)
Description: IRAK1 is a human purified recombinant enzyme (His-TEV-IRAK1 (194-712))
In this assay, IRAK1 hydrolyses ATP and autophosphorylates. Measurement of IRAK-1 inhibition is performed in 384-well format based on luminescence assay (ADP-Glo™ Kinase Assay from Promega). Purified human recombinant IRAK1 ([…]) and serial diluted compounds in DMSO (range of concentration from 10 μM to 0.5 nM) or controls (1% DMSO) are incubated for 15 minutes at RT in assay buffer containing 50 mM Hepes pH 7.0, Fatty acid-free BSA 0.1%, Dithiothreitol (DTT) 2 mM, MgCl2 10 mM, EGTA 0.5 mM, Triton X-100 0.01%. The kinase reaction is then initiated by the addition of ATP at a concentration of 1 μM. After 2 hours of incubation at RT, the reaction is stopped and the unconsumed ATP depleted by the addition of ADP-Glo™ Reagent according to supplier instructions. After 40 minutes of incubation at RT, the Kinase Detection Reagent is then added to the assay plate according to supplier instructions. After 20 minutes of incubation at RT, the luminescence signal is measured with a luminometer (PerkinElmer Envision or equivalent reader).

T2 sequence (P51617 194-712): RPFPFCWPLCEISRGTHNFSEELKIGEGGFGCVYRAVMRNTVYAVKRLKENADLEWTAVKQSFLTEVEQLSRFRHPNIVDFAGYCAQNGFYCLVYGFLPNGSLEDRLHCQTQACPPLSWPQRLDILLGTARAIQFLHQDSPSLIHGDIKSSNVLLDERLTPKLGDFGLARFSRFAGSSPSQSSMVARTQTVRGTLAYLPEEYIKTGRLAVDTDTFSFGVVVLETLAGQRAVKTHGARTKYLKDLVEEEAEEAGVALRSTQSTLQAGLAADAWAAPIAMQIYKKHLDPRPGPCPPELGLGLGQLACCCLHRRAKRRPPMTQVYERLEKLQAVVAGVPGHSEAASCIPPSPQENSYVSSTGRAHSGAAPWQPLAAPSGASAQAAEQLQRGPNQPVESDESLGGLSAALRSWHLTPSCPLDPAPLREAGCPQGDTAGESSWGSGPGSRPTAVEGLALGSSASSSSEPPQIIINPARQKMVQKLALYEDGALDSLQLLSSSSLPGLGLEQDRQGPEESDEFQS

SMILES | IC50 (IRAK4) [nM] | IC50 (IRAK1) [nM] | IC50 ([1]; Homo sapiens, PBMC) [nM] | IC50 [1] [nM]
Cn1cncc(-c2ccc3c(c2)[nH]/c(=N\C(=O)c2cccc(C(F)(F)F)c2)n3CCCO)c1=O [Compound 5, (E)-N-(1-(3-hydroxypropyl)-5-(1-methyl-6-oxo-1,6-dihydropyrimidin-5-yl)-1H-benzo[d]imidazol-2(3H)-ylidene)-3-(trifluoromethyl)benzamide] | ≤ 100 | 100 to 1000 | 100 to 1000 | 
O=C(/N=c1\[nH]c2cc(C3CCCCC3=O)ccc2n1CCCO)c1cccc(C(F)(F)F)c1 (stereo not drawn) [Compound 8, (E)-N-(1-(3-hydroxypropyl)-5-(2-oxocyclohexyl)-1H-benzo[d]imidazol-2(3H)-ylidene)-3-(trifluoromethyl)benzamide] | ≤ 100 | ≤ 100 |  | 
CN1CCC(c2ccc3c(c2)[nH]/c(=N\C(=O)c2cccc(C(F)(F)F)c2)n3CCC(O)CO)C1=O (stereo not drawn) [Compound 21, N-[1-(3,4-Dihydroxy-butyl)-5-(1-methyl-2-oxo-pyrrolidin-3-yl)-1,3-dihydro-benzoimidazol-(2E)-ylidene]-3-trifluoromethyl-benzamide] | ≤ 100 | 100 to 1000 | ≤ 100 | 
CN1C(=O)CCC1(C)c1ccc2c(c1)nc(NC(=O)c1cccc(C(F)F)c1)n2CCCO (stereo not drawn) [Compound 31, 3-Difluoromethyl-N-[5-(1,2-dimethyl-5-oxo-pyrrolidin-2-yl)-1-(3-hydroxy-propyl)-1H-benzoimidazol-2-yl]-benzamide] | ≤ 100 | 100 to 1000 | 1000 to 10000 | 
CC(=O)N1CCC(c2ccc3c(c2)[nH]/c(=N\C(=O)c2cccc(C(F)(F)F)c2)n3CCCO)C1 (stereo not drawn) [Compound 12, (E)-N-(5-(1-acetylpyrrolidin-3-yl)-1-(3-hydroxypropyl)-1H-benzo[d]imidazol-2(3H)-ylidene)-3-(trifluoromethyl)benzamide] | ≤ 100 | 100 to 1000 | 100 to 1000 | 
O=C(/N=c1\[nH]c2cc(C3CCCN(CC4CC4)C3=O)ccc2n1CCCO)c1cccc(C(F)(F)F)c1 (stereo not drawn) [Compound 7, (E)-N-(5-(1-(cyclopropylmethyl)-2-oxopiperidin-3-yl)-1-(3-hydroxypropyl)-1H-benzo[d]imidazol-2(3H)-ylidene)-3-(trifluoromethyl)benzamide] | ≤ 100 | 100 to 1000 | 100 to 1000 | 
CN1CCCC(c2ccc3c(c2)[nH]/c(=N\C(=O)c2cccc(C(F)(F)F)c2)n3C[C@](C)(F)CO)C1=O (stereo partly drawn) [Compound 16, (E)-N-(1-((S)-2-fluoro-3-hydroxy-2-methylpropyl)-5-(1-methyl-2-oxopiperidin-3-yl)-1H-benzo[d]imidazol-2(3H)-ylidene)-3-(trifluoromethyl)benzamide] | ≤ 100 | 100 to 1000 | 100 to 1000 | 
CN1CCCC(c2ccc3c(c2)[nH]/c(=N\C(=O)c2cccc(C(F)(F)F)c2)n3CCCO)C1=O (stereo not drawn) [Compound 1, (E)-N-(1-(3-hydroxypropyl)-5-(1-methyl-2-oxopiperidin-3-yl)-1H-benzo[d]imidazol-2(3H)-ylidene)-3-(trifluoromethyl)benzamide] | ≤ 100 | ≤ 100 | ≤ 100 | 
CN1CCC(c2ccc3c(c2)[nH]/c(=N\C(=O)c2cccc(C(F)(F)F)c2)n3CC(O)CO)C1=O (stereo not drawn) [Compound 20, N-[1-(2,3-Dihydroxy-propyl)-5-(1-methyl-2-oxo-pyrrolidin-3-yl)-1,3-dihydro-benzoimidazol-(2E)-ylidene]-3-trifluoromethyl-benzamide] | ≤ 100 | 100 to 1000 | 100 to 1000 | 
Cn1cccc(-c2ccc3c(c2)[nH]/c(=N\C(=O)c2cccc(C(F)(F)F)c2)n3CCCO)c1=O [Compound 4, (E)-N-(1-(3-hydroxypropyl)-5-(1-methyl-2-oxo-1,2-dihydropyridin-3-yl)-1H-benzo[d]imidazol-2(3H)-ylidene)-3-(trifluoromethyl)benzamide] | ≤ 100 | 100 to 1000 |  | 
O=C(/N=c1\[nH]c2cc(C3(O)COC3)ccc2n1CCCO)c1cccc(C(F)(F)F)c1 [Compound 11, (E)-N-(5-(3-hydroxyoxetan-3-yl)-1-(3-hydroxypropyl)-1H-benzo[d]imidazol-2(3H)-ylidene)-3-(trifluoromethyl)benzamide] | ≤ 100 | 1000 to 10000 |  | 
Cc1ccn(C)c(=O)c1-c1ccc2c(c1)[nH]/c(=N\C(=O)c1cccc(C(F)(F)F)c1)n2CCCO [Compound 6, (E)-N-(5-(1,4-dimethyl-2-oxo-1,2-dihydropyridin-3-yl)-1-(3-hydroxypropyl)-1H-benzo[d]imidazol-2(3H)-ylidene)-3-(trifluoromethyl)benzamide] | ≤ 100 | 100 to 1000 |  | 
O=C1C=C(c2ccc3c(c2)[nH]/c(=N\C(=O)c2cccc(C(F)(F)F)c2)n3CCCO)CO1 [Compound 9, (E)-N-(1-(3-hydroxypropyl)-5-(5-oxo-2,5-dihydrofuran-3-yl)-1H-benzo[d]imidazol-2(3H)-ylidene)-3-(trifluoromethyl)benzamide] | ≤ 100 | 100 to 1000 |  | 

Second part, led by results:

IC50 (IRAK4) [nM] | IC50 (IRAK1) [nM] | SMILES | IC50 ([1]; Homo sapiens, PBMC) [nM] | IC50 [1] [nM]
≤ 100 | ≤ 100 | CN1CCC(c2ccc3c(c2)[nH]/c(=N\C(=O)c2cccc(C(F)(F)F)c2)n3CCC(O)CO)C1=O (single isomer, unassigned) [Compound 21d] |  | 100 to 1000
≤ 100 | 100 to 1000 | CN1CCC[C@H](c2ccc3c(c2)[nH]/c(=N\C(=O)c2cccc(C(F)(F)F)c2)n3CCCO)C1=O [Compound 1b, (R,E)-N-(1-(3-hydroxypropyl)-5-(1-methyl-2-oxopiperidin-3-yl)-1H-benzo[d]imidazol-2(3H)-ylidene)-3-(trifluoromethyl)benzamide] | 1000 to 10000 | 
≤ 100 | 1000 to 10000 | CN1CCC(C)(c2ccc3c(c2)nc(NC(=O)c2cccc(C(F)F)c2)n3CCCO)C1=O (single isomer, unassigned) [Compound 30a] | 1000 to 10000 | 
≤ 100 | 100 to 1000 | CN1CCCC(c2ccc3c(c2)[nH]/c(=N\C(=O)c2cccc(C(F)(F)F)c2)n3CCC(O)CO)C1=O (single isomer, unassigned) [Compound 22a] |  | ≤ 100
≤ 100 | ≤ 100 | CN1CC(c2ccc3c(c2)nc(NC(=O)c2cccc(C(F)F)c2)n3CCCO)C(C)(C)C1=O (single isomer, unassigned) [Compound 27a] | 100 to 1000 | 
≤ 100 | 100 to 1000 | CN1CCCC(c2ccc3c(c2)[nH]/c(=N\C(=O)c2cccc(C(F)F)c2)n3C[C@](C)(F)CO)C1=O (stereo partly drawn) [Compound 2a, (E)-3-(difluoromethyl)-N-(1-((S)-2-fluoro-3-hydroxy-2-methylpropyl)-5-(1-methyl-2-oxopiperidin-3-yl)-1H-benzo[d]imidazol-2(3H)-ylidene)benzamide] |  | 
